# Measured values taken from patent US8722897B2, “Metal complexes of thiourea and derivatives as metal delivering anti-cancer and anti-inflammatory agents” (priority 2010, dated 2014).
# Experiments:
# TrxR1 [1] = biological target: T1, TrxR1 (Rattus norvegicus, UniProt O89049); test: In vitro TrxR enzyme assay, with or without NADPH pre-reduction; assay type: biochemical
# T1 sequence (O89049 1-499): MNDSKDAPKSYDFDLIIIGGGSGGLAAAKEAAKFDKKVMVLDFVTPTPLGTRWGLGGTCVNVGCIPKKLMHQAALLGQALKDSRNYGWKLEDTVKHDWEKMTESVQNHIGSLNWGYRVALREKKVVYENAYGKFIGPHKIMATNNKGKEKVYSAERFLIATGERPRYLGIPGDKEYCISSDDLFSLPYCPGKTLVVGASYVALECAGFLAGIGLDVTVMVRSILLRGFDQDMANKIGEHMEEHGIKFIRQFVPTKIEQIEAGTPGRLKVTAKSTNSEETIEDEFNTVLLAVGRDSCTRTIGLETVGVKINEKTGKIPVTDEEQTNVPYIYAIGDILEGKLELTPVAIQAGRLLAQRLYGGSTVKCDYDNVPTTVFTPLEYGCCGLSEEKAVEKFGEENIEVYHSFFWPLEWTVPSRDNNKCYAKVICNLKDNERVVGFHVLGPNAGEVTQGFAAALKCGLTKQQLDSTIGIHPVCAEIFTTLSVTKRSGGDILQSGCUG
# Protocol: A plot of the kapp against the inhibitor concentrations followed a hyperbolic function (FIG. 8B). This is indicative of a two-step, tight-binding inhibition mechanism: […] DTNB (3 mM) and NADPH (0.2 mM) was then added. The TrxR1 activities were determined as the increases in O.D.412 nm over 10 min.
# [2] = Cytotoxicity assay (MTT), HepG2; settings: human, HepG2 cells
# Protocol: Cells were seeded in a 96-well flat-bottomed microplate at 20,000 cells/well in 150 μL of growth medium solution. The compounds were dissolved in dimethyl sulfoxide. Serial dilution of each complex was added to each well with final concentration of DMSO≦1%. The microplate was incubated at 37° C., 5% CO2, 95% air in a humidified incubator for 72 h. After incubation, 10 μL MTT reagent (5 mg/mL) was added to each well. The microplate was re-incubated at 37° C. in 5% CO2 for 4 h. Solubilization solution (10% SDS in 0.01 M HCl) (100 μL) was added to each well. The microplate was left in an incubator for 24 h. Absorbances at 550 nm were measured by a microplate reader.
# NADPH-reduced TrxR1 = biological target: T2, NADPH-reduced TrxR1 (Rattus norvegicus, UniProt O89049); test: BIAM labeling of cysteine and selenocysteine residues of TrxR1; assay type: biochemical; settings: TrxR 0.1 μM, compound 4 μM, pH 8.5 and pH 6.5
# T2 sequence (O89049 1-499): T1 sequence (O89049 1-499)
# Excerpt: The reduced TrxR has free —SH (Cys496) and —SeH (Sec497) groups at the C-terminal active site, making it vulnerable to be attacked by Au(I). ^20, 22, 23 These redox active sites can be probed by biotinylated iodoacetamide (BIAM), which alkylates the free —SH and —SeH groups; and the resulting adduct can be detected by western blot experiment using streptavidin-linked horseradish peroxidase (FIG. 10). ^26, 27 It has been shown that these residues can be selectively alkylated by BIAM by adjusting the pH. At pH 8.5, both —SH and —SeH are alkylated. At pH 6.5, only the —SeH is alkylated owing to the low pKa value for selenocysteine, and thus a weaker streptavidin signal was obtained in which case. […] It is highly likely that the formation of the tight enzyme-inhibitor complex (EI*) involves covalent modification of the redox active selenocysteine and cysteine residue via the Au(I) complex. ^28
# NADPH-reduced TrxR1 (0.1 μM) and 1 (4 μM) were incubated in reaction buffer (100 mM phosphate buffer, pH 7.4, 1 mM EDTA) at room temperature for 1 h. […] The separated proteins were transferred to nitrocellulose membrane and the BIAM labeled proteins were detected with horseradish peroxidase conjugated streptavidin and enhanced chemiluminescence detection.
# TrxR1 [3] = biological target: T1, TrxR1; test: biochemical; settings: for Ki: progress curve analysis
# Protocol: This was further studied by progress curve analysis (FIG. 8). ^24, 25 1 was added in excess (3-100 nM) to a reaction mixture containing 0.2 mM NADPH, 1 nM TrxR and 3 mM disulfide substrate 5,5′-dithiobis(2-nitrobenzoic acid) (DTNB) in phosphate buffer (pH 7.4). […] This was analyzed using Eq. 1 (Example 6), where P is the product concentration, vi and vf are the initial and final steady-state velocities, respectively, and kapp is the apparent first-order rate constant for establishment of the final steady-state inhibition. A plot of the kapp against the inhibitor concentrations followed a hyperbolic function (FIG. 8B). This is indicative of a two-step, tight-binding inhibition mechanism:
# [formula] where EI is the initial collision complex, k3 is the forward isomerization rate, and k4 is the reverse isomerization rate. In this scheme, binding involves rapid formation of an initial collision complex (EI) that subsequently undergoes isomerization to the final slow dissociating enzyme-inhibitor complex (EI*). The k3, k4 and the dissociation constant of the initial collision complex EI (Ki′) can be obtained by fitting the data to Eq. 2.
# 1 was added in excess (3-100 nM) to a reaction mixture containing 0.2 mM NADPH, 1 nM TrxR1, 3 mM disulfide substrate 5,5′-dithiobis(2-nitrobenzoic acid) (DTNB), 100 mM phosphate buffer, pH 7.4 and 1 mM EDTA. The progress curves are non-linear, showing two-phase equilibria typical of slow-onset tight-binding inhibition. The data was fit into Eq. 1 using GraphPad Prism 3.0 software, P=vft+((vi−vf/kapp)(1−e^−kappt) (1) where P is the product concentration, vi and vf are the initial and final steady-state velocities, respectively, and kapp is the apparent first-order rate constant for establishment of the final steady-state inhibition. A plot of the kapp against the inhibitor concentrations followed a hyperbolic function (FIG. 8B). This is indicative of a two-step, tight-binding inhibition mechanism:
# [formula] where EI is the initial collision complex, k3 is the forward isomerization rate, and k4 is the reverse isomerization rate. […]
smiles,measurement,setting,value
"COc1ccc(N2CCN(c3ccc(OC)cc3)C2=[S+][Au-][S+]=C2N(c3ccc(OC)cc3)CCN2c2ccc(OC)cc2)cc1 [complex 1, [Au(TU)2]Cl]",concentration for half maximal inhibition of TrxR,TrxR1 [1]; TrxR 1 nM,approximately equal molar concentration
same,inhibition of NADPH reduced TrxR compared with oxidized TrxR,TrxR1 [1]; with or without 0.2 mM NADPH pre-reduction,much more efficiently inhibited
same,IC50 at 72 h,[2],17400 ± 1000 nM
same,BIAM labeling of TrxR,NADPH-reduced TrxR1,inhibited
same,recovery of enzyme activities after removal of the free inhibitors by ultrafiltration,TrxR1 [3],could not be recovered
same,Ki,TrxR1 [3]; dissociation constant of the initial collision complex EI (Ki′),1.39 nM
same,Ki,"TrxR1 [3]; overall inhibitory constant Ki*, Eq. 3",0.018 nM
